# Source: US10006080B2, “High-selectivity contact activation inhibitor based on infestin-4” (OBSCHESTVO S OGRANICHENNOY OTVETSTVENNOSTYU …, priority 2013, dated 2018)
# How the values were obtained:
# [1] = tested on: contact-activated coagulation; experiment: APTT test in platelet free plasma of a healthy donor (kaolin-cephalin activation); format: biochemical, human; details: for concentration at which the APTT increases nearly four-fold / concentration leading to 2.5-fold increase of APTT: normal plasma
# Procedure: The assessment of activity of the polypeptide comprising the sequence of an infestin-4 mutant MutB by its inhibition of the contact-activated coagulation shall be considered further with a reference to FIG. 1. Native infestin-4 and mutants MutB and Mut15 were added into 3 separate samples of platelet free plasma (PFP) of a healthy donor, with subsequent measuring time of contact-activated clotting in the APTT test.
# Blood plasma from healthy donors was processed according to standard protocols of blood collection for coagulation assays (Collection, Transport, and Processing of Blood Specimens for Testing Plasma-Based Coagulation Assays and Molecular Hemostasis Assays; Approved Guideline Fifth Edition by Clinical and Laboratory Standards Institute (CLSI) H21-A5 Vol. 28 No. 5). 0.38% sodium citrate was added into blood to block the calcium ions.
# The APTT test was administered using the reagent kits “Coagulo-test” (Scientific-production association Renam, Moscow, Russia) and different concentrations of the following contact activation inhibitors: native infestin-4, MutB, and Mut15. To do that, 50 microliters of blood plasma from a healthy donor were mixed with 5.6 microliters of a 10× solution of different inhibitor concentrations and incubated for 15 minutes at 37° C. Then, according to the “Coagulo-test” manual, 25 microliters of the mixture were transferred into the cuvette of the coagulometer Helena-C2, with addition of 25 microliters of kaolin-cephalin mixture activating fXII in blood plasma. After incubation at 37° C. for 3 minutes, 25 microliters of the calcium chloride solution in the initial concentration of 25 mM was added, and the time of fibrin clot formation in the coagulometer cuvette was determined photometrically.
# APTT dependences on concentrations of native infestin-4, MutB and Mut15 obtained in the same way as in Example 1, are shown on FIG. 1.
# [2] = tested on: hypercoagulant PFP; experiment: Thrombodynamics analyzer T-2, clots far from the activator in hypercoagulant PFP (100 pM fXIa added); format: biochemical, human; details: MutB 20 μM, CTI 15 μM; for time of appearance of clots far from the activator after activation: hypercoagulant PFP, nearly 5-8 minutes without inhibitor
# Procedure: To assess the influence of the said contact activation inhibitors on appearance, far from the activator, of clots provoked by hypercoagulation, but not by contact activation of the sample by the cuvette walls, we added MutB (20 μM) and CTI (15 μM) into 2 separate samples of hypercoagulant PFP. Hypercoagulant PFP was obtained from normal frozen-thawed PFP by adding 100 pM of fXIa.
# The influence of a polypeptide consisting of the sequence of an infestin-4 mutant MutB on the growth of fibrin clots in the samples of hypocoagulant, normal, and hypercoagulant blood plasma was studied using the laboratory diagnostic system «Thrombodynamics analyzer T-2» and the «Diagnostic kit for thrombodynamics investigation in blood plasma» (HemaCore, Moscow, Russia) according to the manual to the «Diagnostic kit for thrombodynamics investigation in blood plasma» (HemaCore, Moscow, Russia). Here, the said polypeptide was preliminarily proteolytically cleaved and chromatographically purified from thioredoxin (Trx). 15 minutes before the assay, the measuring cuvette, insert-activator with immobilized TF, and the reagents were held at 37° C. Standard investigation temperature was of 37° C. 15 minutes before the assay, 120 microliters of plasma were mixed with the investigated substances, MutB or CTI, for comparison, and put into a microtube. After mixing of the plasma with the substances, the tube with the plasma was put into a thermostat at 37° C. for 15 minutes. Immediately before the assay, the plasma was re-calcified: 120 microliters of the mixture of plasma and substances were put into a microtube with Reagent II (lyophilized solution of calcium acetate with an additive), and mixed up to complete Reagent II dilution. Then, 120 microliters of the mixture with Reagent II from the microtube was immediately transferred into the measuring cuvette. After that, the insert-activator was carefully inserted into the cuvette so that the surface with immobilized tissue factor would contact the plasma. Immediately after the contact of the coagulation activator with the blood plasma, the photography of the process of fibrin clot growth in plasma within the cuvette started. The cuvette-activator was a plate with the coagulation activator—tissue factor—immobilized at the low end surface (Fadeeva et al. 2010, Biochemistry (Moscow) 75:827-838). The automatic calculation of the assay results was performed using the software (user manual «Software for the laboratory diagnostic system «Thrombodynamics analyzer T-2», HemaCore, Moscow, Russia).
# [3] = tested on: whole blood; experiment: Spontaneous clotting time of whole blood collected without calcium chelator; set-up: species or system human; details: MutB 10 μM, CTI 5 μM; 22° C., no calcium chelator; 3 healthy donors
# Procedure: We used concentrations of contact activation inhibitors leading to 2.5-fold increase of APTT in normal plasma. Untreated whole blood was collected from 3 healthy donors without adding any anticoagulant, for example, citrate, except for the said contact activation inhibitors. The blood was mixed with the said inhibitors at 22° C. using a rotator, after which the time of clot formation in the blood was measured.
# Blood was collected from the median cubital vein of the left hand into a sterile syringe Master UN PE, volume 10 ml, needle 21 G×1½″; 0.8×40 mm (FarmLine, USA). Calcium chelator or other anticoagulants, except contact activation inhibitors MutB or CTI, were not added into plasma. […] The collected blood was poured into a 15 ml tube, mixed by inverting it twice, after which 0.7 ml portions of blood were poured into 1.5 ml polypropylene microcentrifuge tubes MaxyClear Snaplock (Axygen, USA); immediately after, time record using a stopwatch started. Preliminarily, 78 microliters of MutB solution at 100 μM concentration, CTI solution at 50 μM concentration, or buffer solution of 30 mM Hepes pH 7.4 were added into the said tubes. The tubes containing the mixture of whole blood with the said solutions were fixed in the rotator and mixed by inverting them at the rotation speed of 10 rpm. The time of appearance of clots or fibrin filaments in the whole blood during mixing was fixed.
Molecule,"APTT ([1]; 10 μM inhibitor in PFP, 45 sec without inhibitor) [s]",activity in blood plasma in comparison to Mut15 ([1]; APTT dose-dependence),"activity in blood plasma in comparison with Mut15 and native infestin-4 ([1]; APTT dose-dependence, FIG. 1)",concentration at which the APTT increases nearly four-fold [1] [µM],concentration leading to 2.5-fold increase of APTT [1] [µM],influence on appearance of clots far from the activator in hypercoagulant plasma [2],time of appearance of clots far from the activator after activation [2] [min],increase of the whole blood storage time in the tube (clotting time) [3]
"MutB: polypeptide comprising the sequence of infestin-4 mutant MutB (SEQ ID NO: 1), inhibition loop TRNFVA; high-selectivity fXIIa inhibitor (EVRNPCACTRNFVAVCGSDGKTYGNPCMLNCAAQTKVPGLKLVHEGRCQRSNVEQF; Infestin-4 mutant MutB)",120,nearly twofold,increased activity,20,10,does not influence appearance of clots far from the activator,5 to 8,two to three-fold
"corn trypsin inhibitor (other, UniProt P01088 29-138, looked up, Isolated from corn; also called CTI) SAGTSCVPGWAIPHNPLPSCRWYVTSRTCGIGPRLPWPELKRRCCRELADIPAYCRCTALSILMDGAIPPGPDAQLEGRLEDLPGCPREVQRGFAATLVTEAECNLATIS",–,–,–,15,5,delays appearance of clots far from the activator,10 to 15,two to three-fold
